Some test systems named below: HCC-2998 colon; HCT-15 colon; M14 melanoma; MOLT-4 leukemia; NCI-H522 lung; OVCAR-3 ovarian; OVCAR-4 ovarian; SF-295 CNS; SN12C renal; U251 CNS.
Holding throughout (experiment): growth of human tumour cells (NCI), 48 h

SMILES strings stand for the structures. “And” between values parts separate entries of the source, which are not always exact repeats. Equal entries are not always repeated.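 Cultured in 96-well plates, cells were exposed to test compound for 48 hours across five concentrations. At the GI50, growth is halved. TGI marks complete inhibition of growth.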

As to `CCOC(=O)C1=CCCC[C@H]1S(=O)(=O)Nc1ccc(F)cc1Cl`, the GI50 in the assay on HCC-2998 colon was 31.2 µM; in the assay with HCT-15 colon, 20.3 µM; with M14 melanoma it was 25.5 µM; with MOLT-4 leukemia it was 27.3 µM; with NCI-H522 lung, 23.1 µM; with OVCAR-3 ovarian, 23.2 µM. Moreover, the GI50 in the assay on OVCAR-4 ovarian is 31.2 µM; in the assay with SF-295 CNS it was 32.7 µM; in the assay on SN12C renal, 24.5 µM; in the assay with U251 CNS it was 24.7 µM. The TGI is greater than 100 µM in the assay with HCC-2998 colon; greater than 100 µM in the assay with HCT-15 colon; 96.7 µM in the assay on M14 melanoma; 92.2 µM with MOLT-4 leukemia; 90.1 µM in the assay with NCI-H522 lung; 77.3 µM in the assay with OVCAR-3 ovarian. Also, the TGI was greater than 100 µM with OVCAR-4 ovarian, greater than 100 µM in the assay on SF-295 CNS, 94.5 µM in the assay with SN12C renal and greater than 100 µM with U251 CNS.
For `C=C(C)[C@H]1CC[C@@]2(C)C(C1)[C@H](C)CC[C@@H]2O` (some centres not stated), the TGI with HCC-2998 colon, in the assay on HCT-15 colon, in the assay with M14 melanoma, in the assay with MOLT-4 leukemia, in the assay with NCI-H522 lung and with OVCAR-3 ovarian was greater than 100 µM each time. Besides, the TGI with OVCAR-4 ovarian, in the assay with SF-295 CNS, in the assay on SN12C renal and in the assay on U251 CNS was greater than 100 µM each time.
On to `O=c1c2ccccc2sc2c(NCCCNCCO)nc3ccccc3c12`, for which the GI50 in the assay on HCC-2998 colon is 1.72 µM; in the assay on HCT-15 colon it was 1.57 µM; with M14 melanoma it was 1.71 µM; with MOLT-4 leukemia, 1.26 µM; with NCI-H522 lung it was 1.82 µM; with OVCAR-3 ovarian, 1.81 µM. The GI50 in the assay on OVCAR-4 ovarian was 2.17 µM; with SF-295 CNS, 1.83 µM; in the assay with SN12C renal it was 1.47 µM; in the assay on U251 CNS, 1.76 µM. The TGI with HCC-2998 colon was found to be 3.64 µM; in the assay on HCT-15 colon it was 3.52 µM; in the assay on M14 melanoma, 3.33 µM; in the assay with MOLT-4 leukemia, 3.32 µM; with NCI-H522 lung, 3.57 µM; in the assay with OVCAR-3 ovarian, 3.65 µM. The TGI was 6.37 µM in the assay with OVCAR-4 ovarian, 4.11 µM with SF-295 CNS, 3.24 µM in the assay on SN12C renal and 3.57 µM with U251 CNS.
For the compound `O=C1[C@H]2ON(c3ccccc3)C(c3ccc([N+](=O)[O-])cc3)[C@H]2C(=O)N1c1ccc(Cc2ccc(N3C(=O)[C@@H]4ON(c5ccccc5)C(c5ccc([N+](=O)[O-])cc5)[C@@H]4C3=O)cc2)cc1` (some centres not stated), the TGI is greater than 100 µM in the assay with HCC-2998 colon; greater than 100 µM in the assay with HCT-15 colon; 38.9 µM in the assay on M14 melanoma; greater than 100 µM in the assay with MOLT-4 leukemia; greater than 100 µM in the assay with NCI-H522 lung; greater than 100 µM with OVCAR-3 ovarian. Also, the TGI with OVCAR-4 ovarian, in the assay with SF-295 CNS, in the assay on SN12C renal and in the assay with U251 CNS was greater than 100 µM each time.
With `CC(C)(C)C(=O)OCOP(=O)(NCc1ccccc1)C1CCCN(O)C1=O` (configuration not stated), the GI50 was 2.37 µM in the assay on HCC-2998 colon; 2.75 µM with HCT-15 colon; 2.91 µM in the assay with M14 melanoma; 2.61 µM in the assay on MOLT-4 leukemia; 1.78 µM in the assay on NCI-H522 lung; 1.04 µM with OVCAR-3 ovarian. Also, the GI50 was 2.1 µM in the assay on OVCAR-4 ovarian, 3.23 µM in the assay with SF-295 CNS, 0.752 µM in the assay on SN12C renal and 2.45 µM in the assay on U251 CNS. The TGI is 12 µM in the assay with HCC-2998 colon; 25.9 µM in the assay on HCT-15 colon; 18.7 µM in the assay with M14 melanoma; 14.4 µM with MOLT-4 leukemia; 21.9 µM in the assay with NCI-H522 lung; 9 µM in the assay on OVCAR-3 ovarian. The TGI is 71.9 µM in the assay on OVCAR-4 ovarian, 29.5 µM with SF-295 CNS, 9.21 µM in the assay with SN12C renal and greater than 100 µM in the assay with U251 CNS.
On to `CCc1cccc(C(C)C)c1NC(=O)C(=O)C1C(=O)Nc2ccccc2S1=O` (configuration not stated), for which the TGI in the assay with HCC-2998 colon, in the assay with HCT-15 colon, in the assay on M14 melanoma, in the assay with MOLT-4 leukemia, with NCI-H522 lung and in the assay on OVCAR-3 ovarian was greater than 100 µM each time. Moreover, the TGI with OVCAR-4 ovarian, in the assay on SF-295 CNS, in the assay with SN12C renal and in the assay with U251 CNS was greater than 100 µM each time.
Turning to `NS(=O)(=O)OC[C@H]1C[C@@H](Nc2ccnc3cc(-c4cccc(SC(F)(F)F)c4)nn23)[C@H](O)[C@@H]1O`, the GI50 in the assay with HCC-2998 colon was 0.022 µM; in the assay on HCT-15 colon, 0.139 µM; in the assay with M14 melanoma, 0.0429 µM; with MOLT-4 leukemia it was 0.166 µM; in the assay on NCI-H522 lung, 0.0184 µM; with OVCAR-3 ovarian, less than 0.0166 µM. The GI50 is 0.0274 µM in the assay with OVCAR-4 ovarian, 0.086 µM in the assay on SF-295 CNS, 0.0462 µM in the assay with SN12C renal and 0.016 µM in the assay on U251 CNS. For the same compound, the TGI in the assay on HCC-2998 colon is 0.0442 µM; with HCT-15 colon, 0.449 µM; in the assay with M14 melanoma, 0.278 µM; in the assay on MOLT-4 leukemia it was 0.588 µM; with NCI-H522 lung, 0.0363 µM; with OVCAR-3 ovarian, 0.034 µM. Further, the TGI worked out at 0.11 µM in the assay with OVCAR-4 ovarian, 0.237 µM with SF-295 CNS, 0.319 µM in the assay with SN12C renal and 0.0339 µM with U251 CNS.
In the case of `O=c1c2c(nc3n1CCS3)[nH]c1cc([N+](=O)[O-])ccc12`, the GI50 in the assay on HCC-2998 colon was greater than 100 µM; with HCT-15 colon, greater than 100 µM; with M14 melanoma, greater than 100 µM; in the assay on MOLT-4 leukemia, 81.5 µM; in the assay on NCI-H522 lung, greater than 100 µM; with OVCAR-3 ovarian, 25.5 µM. The GI50 in the assay on OVCAR-4 ovarian, in the assay on SF-295 CNS, in the assay on SN12C renal and with U251 CNS was greater than 100 µM in each case. Also, the TGI with HCC-2998 colon is greater than 100 µM; with HCT-15 colon, greater than 100 µM; in the assay with M14 melanoma, greater than 100 µM; in the assay on MOLT-4 leukemia, greater than 100 µM; in the assay with NCI-H522 lung, greater than 100 µM; in the assay with OVCAR-3 ovarian it was 81.2 µM. For the same compound, the TGI in the assay on OVCAR-4 ovarian, in the assay on SF-295 CNS, in the assay on SN12C renal and with U251 CNS was greater than 100 µM throughout.
With `COC(=O)[C@@H]1c2cc3c(c(O)c2[C@@H](OC2OC(C)C(OC)C(C)(OC)C2OC)C[C@]1(C)O)C(=O)c1c(O)cc2c(c1C3=O)O[C@H]1O[C@]2(C)[C@H](O)[C@@H](N(C)C)[C@@H]1O` (some centres not stated), the TGI with HCC-2998 colon is 0.0305 µM and 0.0223 µM; in the assay on HCT-15 colon, 1.14 µM; in the assay on M14 melanoma, 0.14 µM and 0.107 µM; in the assay on MOLT-4 leukemia, 0.229 µM and 0.0903 µM; with NCI-H522 lung it was 0.0638 µM and 0.0131 µM; in the assay with OVCAR-4 ovarian it was 0.291 µM. Further, the TGI was 0.254 µM and 1.22 µM with SF-295 CNS; 2 µM with SN12C renal; 0.443 µM and 0.236 µM with U251 CNS. The GI50 in the assay on HCT-15 colon was 0.117 µM; with M14 melanoma, 0.0194 µM; in the assay with OVCAR-3 ovarian it was 0.0683 µM.

(Values after PubChem BioAssay (NCI).)
